{"source": "patent US20020143018A1", "about": "(priority 2000, published 2002)", "tested_on": "Sarcocystis neurona strain SN3", "assay": "Microtiter Monolayer Disruption Assay (MMDA), inhibition of merozoite-induced cell destruction (CPE)", "type": "cell-based", "conditions": "S. neurona merozoites 50,000/well on BT cell monolayers, compound added 2 hours after infection, crystal violet readout, read-out: Percent Inhibition of Cell Destruction", "protocol": "In order to determine the scope of protection provided by praziquantel, in vitro testing was conducted. Sarcocystis neurona was evaluated for its sensitivity to this compound. Strain SN3 of Sarcocystis neurona was used.\nBovine turbinate (BT) cells were used for all in vitro tests. Cells were grown to confluency in 25 cm^2 flasks in RMPI 1640 media supplemented with 10% v/v fetal bovine serum (FBS), 100 Units of penicillin (g/mL), […] and 5×10^−2 mM of 2-mercaptoethanol. After cell confluence was obtained, cells were maintained in the same media with reduced FBS (2% v/v). Cell cultures were incubated at 37 C. in a humidified atmosphere containing 5% carbon dioxide and 95% air.\nFor growth of the parasite, BT cell monolayers were infected with parasites and examined with an inverted microscope for the development of lesions (cytopathic effect, “CPE”) or the presence of many extracellular merozoites. Once lesions were observed, or many extracellular parasites were present, the monolayer was scraped with the tip of a 5 mL pipette and 1 to 3 drops of the merozoite-containing fluid was transferred to two flasks of fresh BT cells. […]\nThis assay was used to determine if the parasites or compound were toxic for BT cells. […] Each well was visually monitored daily and the assay was stopped when 90-100% of the untreated merozoite infected cells had lysed (90-100% CPE). […]"}
{"smiles": "O=C(C1CCCCC1)N1CC(=O)N2CCc3ccccc3C2C1", "note": "(centres unmarked) [Praziquantel, praziquantel]", "values": [{"measurement": "inhibition at 10 µg/mL", "setting": "10 μg/mL", "value": 51, "unit": "%"}, {"measurement": "inhibition at 20 µg/mL", "setting": "20 μg/mL", "value": 69, "unit": "%"}]}
